# Patent publication US20200046763A1, “APPLICATION OF GSK3 INHIBITOR IN PREPARING A DRUG TO TREAT NIEMANN-PICK DISEASE TYPE C” (WUXI HANQIANG PHARMACEUTICAL TECHNOLOGY CO., LTD., priority 2016, published 2020)
# How the values were obtained:
# [1] = tested on: NPC1 KD or NPC1 KO hematopoietic and neural stem cells; experiment: Effect of GSK3 inhibitor on NP-C cell model (proliferation, stem cell self-renewal and differentiation); format: cell-based, mouse; details: for self-renewal and differentiation capacities of hematopoietic and neural stem cells: NPC1 KD or NPC1 KO cells, LiCl 10 MM, CHIR99021 3 uM
# Procedure: 2) NPC1 gene expression knock-down (KD) human and mouse cells: lentivirus expressing human and mouse NPC1 shRNA is prepared, lentivirus infects human embryonic kidney 293T and Mouse Embryonic Fibroblast (MEF), positive infected cells are screened by puromycin, and qPCR and western blotting validate the effect of NPC1 gene expression knock-down, to obtain the NPC1 KD cell model.
# According to the method of Embodiment I, NPC model cells are prepared, and hematopoietic stem cells and neural stem cells of the NPC1 KO mice are isolated.
# Experimental procedures and measurement indexes are: treatment of NPC1 KD and NPC1 KO cells with GSK3 specific inhibitors, i.e., LiCl and CHIR99021, and observation of changes in cell proliferation and stern cell self-renewal and differentiation.
# NPC1 KO mice = experiment: Effect of GSK3 inhibitor on NPC1 KO mouse model; format: in vivo; details: LiCl 85 mg/kg or CHIR99021 20 mg/kg intraperitoneally daily from first week (b9: or same dose intragastrically)
# Procedure: NPC1 KO mice are divided into three groups (a control group, a LiCl treatment group and a CHIR99021 treatment group), with five mice in each group. From the first week after birth, the mice in the LiCl treatment group and the CHIR99021 treatment group are intraperitoneally injected with LiCl (85 mg/kg) and CHIR99021 (20 mg/kg) per day respectively, the mice in the control group are intraperitoneally injected with normal saline, and the survival rate of the mice is continuously observed.
# An NPC1 gene knock-out (KO) mouse preparation method: the NPC1 genes are knocked out by CRISPY_Cas9 to obtain NPC1−/−mice.
# The NPC mouse model is prepared according to the method of Embodiment II, and LiCl (the dose of 85 mg/kg) or CRIR99021 (the dose of 20 mg/kg) is intraperitoneally injected every day from the first week.
# The testing indexes are phenotypes of hematological and neurological systems, as well as symptoms and signs.
# [2] = NPC1 KD hematopoietic stem cells, 10 mM LiCl
SMILES,self-renewal and differentiation capacities of hematopoietic and neural stem cells [1],hematopoietic function of the mice (NPC1 KO mice),neurodegenerative change symptoms (NPC1 KO mice),"increase of colony formation capacity [1, 2] [%]","increase of proliferation capacity of hematopoietic stem cells [1, 2] [%]"
Cc1c[nH]c(-c2cnc(NCCNc3ccc(C#N)cn3)nc2-c2ccc(Cl)cc2Cl)n1 [CHIR99021],significantly improve,significantly improved,significantly improved,,
[Cl-].[Li+] [LiCl],significantly improve,significantly improved,significantly improved,≥ 30,≥ 50
